# Measured values published in ChEMBL document CHEMBL5380853, “Lead Optimization of Androgen Receptor-HSP27 Disrupting Agents in Glioblastoma” (J Med Chem, 2023).
# Calls of active or inactive are those of the source. The rule behind the calls is not given here.
# Assays:
# U-87 MG [1] = assay: Antitumor activity against human U87 cells xenografted in mouse assessed as decrease in tumor size at 20 mg/kg, ip administered weekly 3 times for 14 days; format: functional, organism-based; conditions: U-87MG ATCC, time 14.0 day
# U-87 MG [2] = assay: In vivo antitumor activity against human U87 cells xenografted in mouse assessed as decrease in tumor weight at 20 mg/kg, ip administered weekly 3 times for 14 days relative to control; format: functional, organism-based; conditions: U-87MG ATCC, time 14.0 day
# T98G [3] = assay: Down regulation of androgen receptor activity in AR-overexpressing human T98G cells at 50 nM measured after 12 hrs by Western blotting analysis; format: functional, cell-based
# [4] = Apparent half life in mouse plasma at 20 mg/kg, ip measured for 24 hrs by LC-MS/MS analysis; format: ADME, organism-based; conditions: in vivo, ip, 20 mg/kg, 24 h
# [5] = Toxicity in C57BL/6 mouse assessed as spleen histology by measuring intact/distinct spleen-follical at 100 mg/kg, ip treated for 10 days by hematoxylin and eosin staining based assay; format: organism-based; conditions: in vivo, 240 h, time 10 day
# U-87MG ATCC = assay: Effect on nucleus AR level in AR-overexpressing human U87 cells at 50 nM measured after 12 hrs by immunofluorescence assay; format: functional, cell-based
# U-87 MG [6] = assay: In vivo antitumor activity against human U87 cells xenografted in mouse assessed as decrease in AR protein level in tumor at 20 mg/kg, ip administered weekly 3 times for 14 days relative to control; format: functional, organism-based; conditions: U-87MG ATCC, time 14.0 day
# [7] = target: Heat shock protein beta-1 (Homo sapiens) (UniProt P04792); assay: Inhibition of HSP27 chaperone activity in AR-overexpressing human U87 cells assessed as down regulation of androgen receptor level at 25 to 100 nM by Western blotting analysis; format: cell-based; conditions: dose lower […], dose upper 100.0 nM
# [8] = Toxicity in C57BL/6 mouse assessed as physical condition at 100 mg/kg, ip treated for 10 days; format: organism-based; conditions: in vivo, 240 h, time 10 day
# [9] = Toxicity in C57BL/6 mouse assessed as lung histology by measuring injury/fibrosis at 100 mg/kg, ip treated for 10 days by hematoxylin and eosin staining based assay; format: organism-based; conditions: in vivo, 240 h, time 10 day
# T98G [10] = assay: Effect on nucleus AR level in AR-overexpressing human T98G cells at 50 nM measured after 12 hrs by immunofluorescence assay; format: functional, cell-based
# [11] = Toxicity in C57BL/6 mouse assessed as liver histology at 100 mg/kg, ip treated for 10 days by hematoxylin and eosin staining based assay; format: organism-based; conditions: in vivo, 240 h, time 10 day
# [12] = Toxicity in C57BL/6 mouse assessed as heart histology by measuring infarcts/inflammatory cell infiltration at 100 mg/kg, ip treated for 10 days by hematoxylin and eosin staining based assay; format: organism-based; conditions: in vivo, 240 h, time 10 day
# T98G [13] = assay: Down regulation of androgen receptor activity in AR-overexpressing human T98G cells at 100 nM measured after 12 hrs by Western blotting analysis; format: functional, cell-based
# [14] = target: Heat shock protein beta-1 (Homo sapiens) (UniProt P04792); assay: Inhibition of HSP27 alpha-crystallin (unknown origin) activity assessed as DTT-induced insulin B chain aggregation at 10 uM measured upto 2 hrs by microplate reader-based HSP27 chaperone activity assay
# [15] = AUC (0 to infinity) in mouse plasma at 20 mg/kg, ip measured for 24 hrs by LC-MS/MS analysis; format: ADME, organism-based; design: time 24 hrs, dose 20 mg/kg, route ip; conditions: in vivo
# [16] = target: Heat shock protein beta-1 (Homo sapiens) (UniProt P04792); assay: Inhibition of HSP27 in AR-overexpressing human T98G cells assessed as androgen receptor degradation by measuring decrease in free cytoplasmic AR level at 50 nM measured after 12 hrs by immunofluorescence assay; format: cell-based
# [17] = Toxicity in mouse xenografted with human U87 cells assessed as body weight at 20 mg/kg, ip administered weekly 3 times for 14 days; format: organism-based, U-87MG ATCC; conditions: in vivo, 336 h, time 14 day
# [18] = target: Heat shock protein beta-1 (Homo sapiens) (UniProt P04792); assay: Inhibition of HSP27 chaperone activity in human T98G cells expressing AR-V7 mutant assessed as down regulation of androgen receptor level at 25 to 100 nM by Western blotting analysis; format: cell-based; conditions: dose lower […], dose upper 100.0 nM
# [19] = Apparent Half life in mouse brain at 20 mg/kg, ip measured for 24 hrs by LC-MS/MS analysis; format: ADME, organism-based; conditions: in vivo
# [20] = Toxicity in C57BL/6 mouse assessed as kidney histology by measuring necrosis/glomerular atrophy at 100 mg/kg, ip treated for 10 days by hematoxylin and eosin staining based assay; format: organism-based; conditions: in vivo, 240 h, time 10 day
# [21] = AUC (0 to 24 hrs) in mouse brain at 20 mg/kg, ip measured for 24 hrs by LC-MS/MS analysis; format: ADME, organism-based; design: dose 20 mg/kg, time 24 hrs, route ip; conditions: in vivo
# [22] = Toxicity in C57BL/6 mouse assessed as body weight change at 100 mg/kg, ip treated for 10 days; format: organism-based; conditions: in vivo, 240 h, time 10 day
# [23] = target: Heat shock protein beta-1 (Homo sapiens) (UniProt P04792); assay: Inhibition of HSP27 chaperone activity in AR-overexpressing human T98G cells assessed as down regulation of androgen receptor level at 25 to 100 nM by Western blotting analysis; format: cell-based; conditions: dose lower […], dose upper 100.0 nM
# [24] = Cmax in mouse brain at 20 mg/kg, ip measured for 24 hrs by LC-MS/MS analysis; format: ADME, organism-based; design: dose 20 mg/kg, time 24 hrs, route ip
# [25] = AUC (0 to infinity) in mouse brain at 20 mg/kg, ip measured for 24 hrs by LC-MS/MS analysis; format: ADME, organism-based; design: time 24 hrs, dose 20 mg/kg, route ip; conditions: in vivo
# [26] = target: Heat shock protein beta-1 (Homo sapiens) (UniProt P04792); assay: Inhibition of HSP27 in AR-overexpressing human U87 cells assessed as androgen receptor degradation by measuring decrease in free cytoplasmic AR level at 50 nM measured after 12 hrs by immunofluorescence assay; format: cell-based
# [27] = Cmax in mouse plasma at 20 mg/kg, ip measured for 24 hrs by LC-MS/MS analysis; format: ADME, organism-based; design: time 24 hrs, dose 20 mg/kg, route ip; conditions: in vivo
# [28] = AUC (0 to 24 hrs) in mouse plasma at 20 mg/kg, ip measured for 24 hrs by LC-MS/MS analysis; format: ADME, organism-based; design: dose 20 mg/kg, time 24 hrs, route ip; conditions: in vivo
# Heat shock protein beta-1 (Homo sapiens), sequence (P04792 whole entry): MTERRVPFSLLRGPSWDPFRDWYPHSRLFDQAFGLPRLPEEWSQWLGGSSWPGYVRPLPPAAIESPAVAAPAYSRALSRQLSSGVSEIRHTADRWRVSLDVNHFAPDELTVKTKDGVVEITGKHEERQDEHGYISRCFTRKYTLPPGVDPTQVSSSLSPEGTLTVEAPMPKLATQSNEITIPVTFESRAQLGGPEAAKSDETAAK
Compound,Activity (U-87 MG [1]),Activity (U-87 MG [2]),Activity (T98G [3]),t1/2 [4],Activity [5],Activity (U-87MG ATCC),Activity (U-87 MG [6]),inhibition [7],Activity [8],Activity [9],Activity (T98G [10]),Activity [11],Activity [12],Activity (T98G [13]),inhibition [14],AUC [15],inhibition [16],Activity [17],inhibition [18],t1/2 [19],other results
COc1ccc(OC)c(COc2cc(NC(=O)c3ccc4ccccc4c3)ccc2NS(C)(=O)=O)c1,Active,Active,Active,6.28 h,Non-Toxic,inactive,Active,Active,Non-Toxic,Non-Toxic,inactive,Non-Toxic,Non-Toxic,Active,Active,80840 ng·h/mL,Active,Non-Toxic,Active,8.66 h,"Activity [20]: Non-Toxic; AUC [21]: 1.34 µg·h/g; Activity [22]: Non-Toxic; inhibition [23]: Active; Cmax ([24]; in vivo, 24 h): 0.76 µg/g; AUC [25]: 2.44 µg·h/g; inhibition [26]: Active; Cmax [27]: 30620 ng/mL; AUC [28]: 61920 ng·h/mL"
COc1ccc(OC)c(COc2cc(NC(=O)c3ccc4c(c3)OCO4)ccc2NS(C)(=O)=O)c1,Active,Active,Active,1.49 h,Non-Toxic,inactive,Active,Active,Non-Toxic,Non-Toxic,inactive,Non-Toxic,Non-Toxic,Active,Active,32130 ng·h/mL,Active,Non-Toxic,Active,0.57 h,"Activity [20]: Non-Toxic; AUC [21]: 0.31 µg·h/g; Activity [22]: Non-Toxic; inhibition [23]: Active; Cmax ([24]; brain, read-out: Cmax): 0.68 µg/g; AUC [25]: 0.62 µg·h/g; inhibition [26]: Active; Cmax [27]: 20200 ng/mL; AUC [28]: 20020 ng·h/mL"
